“And” between values parts separate entries of the source, which are not always exact repeats. Identical values can stand only once. Counter-ions that a name gives are not always drawn. Like-named read-outs stand apart in the source and are kept apart here.
Key:
[1] = tested on: [3H]-ADMA transport across the blood-brain and blood-CSF barriers; assay: cross-inhibition, in situ perfusion: [^3H]-ADMA with 100 μM unlabelled L-arginine; type: in vivo, mouse; design: uptake into choroid plexus / uptake into frontal cortex / uptake into caudate nucleus / uptake into occipital cortex / uptake into hippocampus / uptake into hypothalamus / uptake into thalamus / uptake into cerebellum: unit not given here; conditions: male, Balb/c, mouse, other: in situ brain perfusion, 10 mins, Balb/c ♂, 5ml/min
Method: (§1) Self-inhibition experiments were also performed. […] Cross-competition experiments were also performed.
(§2) The percentage change in the RTissue uptake values achieved in the absence or presence of an unlabelled inhibitor can be calculated by means of Eq 4.
(§3) %change=RTissue−RInhibition/RTissue×100 Eq 4
(§4) We define RInhibition as the RTissue uptake in the presence of an inhibitor in the artificial plasma.
(§5) A decrease in the uptake of radiolabelled solute in the presence of unlabelled inhibitor is indicative of a saturable influx transport system. Conversely, an increase in the uptake of radiolabelled solute in the presence of unlabelled inhibitor is indicative of a saturable efflux transport system.

[2] = tested on: [^3H]-ADMA transport across the blood-brain and blood-CSF barriers; assay: as above; type: in vivo, mouse; design: uptake into choroid plexus / uptake into frontal cortex / uptake into caudate nucleus / uptake into occipital cortex / uptake into hippocampus / uptake into hypothalamus / uptake into thalamus / uptake into cerebellum: unit not given here; conditions: [3H] ADMA + [14C] Sucrose + 100uM Arg, 10 mins, Balb/c ♂, 5ml/min; individual mice
Method: as §1, §2, §3, §4, §5

[3] = in situ brain/choroid plexus perfusion: CNS uptake of [^3H]-arginine, [^3H]-ADMA and [^14C]-sucrose (multiple-time and single-time uptake analysis); conditions: Balb/c ♂, 5ml/min
Method: All animals used in procedures were adult male BALB/c mice (between 23 g and 25 g) sourced from Harlan Laboratories, Oxon, UK, unless otherwise stated.
Animals were weighed immediately before the administration of the anaesthetic to ensure correct dosage. Domitor® (medetomidine hydrochloride) and Vetalar® (ketamine) were both purchased from Harlan Laboratories (Cambridge, UK). All animals were terminally anaesthetised (2 mg/kg Domitor® and 150 mg/kg Vetalar® injected intraperitoneally), and a lack of self-righting and paw-withdrawal reflexes (as surrogate indicators of consciousness) thoroughly checked prior to and during all procedures. If needed, additional anaesthetic was administered via the same route. […] At the end of the in situ brain perfusion procedure the animal was killed by decapitated under non-recovery anaesthesia. Animals were heparinised with 100 units heparin (in 0.9% m/v NaCl(aq), Harlan Laboratories; Oxon, UK), administered via the intraperitoneal route prior to surgery.
The in situ brain/choroid plexus perfusion method is designed to directly perfuse the brain with artificial plasma via a cannula placed in the heart. Artificial plasma is prepared to mimic the ionic composition of blood, and transporter inhibitors can be added in known concentrations and delivered to the brain for defined periods of time.
The left ventricle of the heart was cannulated with a 25G x 10 mm butterfly-winged needle connected to the perfusion circuit. […] The right atrium of the heart was sectioned to allow outflow of the artificial plasma. […] Radiolabelled and unlabelled test molecules were infused into the inflowing artificial plasma for periods up to 30 minutes.
At the set perfusion time a CSF sample was taken by inserting a pulled glass micropipette connected to silicon tubing and a syringe into the cisterna magna. Gentle suction was applied, and CSF was withdrawn. Only clear CSF samples were processed and taken for analysis. Samples contaminated with blood were discarded. The animal was then decapitated and the brain removed. Specific brain samples including the circumventricular organs (CVOs) were taken using a Leica S4E L2 stereomicroscope (Leica; Buckinghamshire, UK). The brain samples included the frontal cortex, caudate nucleus, occipital cortex, hippocampus, hypothalamus, thalamus, pons and cerebellum. The CVOs included the choroid plexus, pituitary gland and pineal gland.
All samples (brain regions, capillary depletion brain homogenate, pellet and supernatant, CVOs, CSF and plasma samples) were solubilised in 0.5 mL tissue solubiliser (Solvable; Perkin-Elmer; Boston, MA, USA). After incubating the samples at room temperature for 48 h, 4 mL scintillation fluid (Lumasafe®; Perkin-Elmer; Boston, MA, USA) was added to each before vigorous vortexing.

For `CN(C)C(N)=NCCC[C@H](N)C(=O)O` [ADMA, N^G,N^G-dimethylarginine dihydrochloride], the Kp at 10 min, 62.5 nM ([1]; hypothalamus, with 100 µM unlabelled L-arginine, Difference (ADMA minus Sucrose), hypothalamus, + 100uM Arg, individual mice) was 0.0699, the Kp at 10 min, 62.5 nM ([1]; hypothalamus, with 100 µM unlabelled L-arginine, Difference (ADMA minus Sucrose), hypothalamus, + 100uM Arg, mean) was 0.0777 and the Kp at 10 min, 62.5 nM ([1]; hypothalamus, with 100 µM unlabelled L-arginine, [3H] ADMA + [14C] Sucrose + 100uM Arg, individual mice, read-out: uptake into hypothalamus) was 0.105. The Kp at 10 min, 62.5 nM ([1]; hypothalamus, with 100 µM unlabelled L-arginine, [3H] ADMA + [14C] Sucrose + 100uM Arg, mean, read-out: uptake into hypothalamus) was 0.11, the Kp at 10 min, 62.5 nM ([1]; occipital cortex, with 100 µM unlabelled L-arginine, Difference (ADMA minus Sucrose), occipital cortex, + 100uM Arg, mean) was 0.048 and the Kp at 10 min, 62.5 nM ([1]; occipital cortex, with 100 µM unlabelled L-arginine, [3H] ADMA + [14C] Sucrose + 100uM Arg, mean, read-out: uptake into occipital cortex) was 0.0669. For the same molecule, the Kp at 10 min, 62.5 nM ([1]; pineal gland, with unlabelled L-arginine 100 µM, Difference (ADMA minus Sucrose), pineal gland, + 100uM Arg, mean) was 0.613, the Kp at 10 min, 62.5 nM ([1]; pineal gland, with unlabelled L-arginine 100 µM, [3H] ADMA + [14C] Sucrose + 100uM Arg, mean, read-out: uptake into pineal gland) was 0.915 and the Kp at 10 min, 62.5 nM ([1]; pituitary gland, with 100 µM unlabelled L-arginine, Difference (ADMA minus Sucrose), pituitary gland, + 100uM Arg, mean) was 0.487. It also gave a Kp at 10 min, 62.5 nM ([1]; pituitary gland, with 100 µM unlabelled L-arginine, [3H] ADMA + [14C] Sucrose + 100uM Arg, mean, read-out: uptake into pituitary gland) of 0.6, a Kp at 10 min, 62.5 nM ([1]; pons, with 100 µM unlabelled L-arginine, Difference (ADMA minus Sucrose), pons, + 100uM Arg, mean) of 0.0483 and a Kp at 10 min, 62.5 nM ([1]; pons, with 100 µM unlabelled L-arginine, [3H] ADMA + [14C] Sucrose + 100uM Arg, mean, read-out: uptake into pons) of 0.0946. The Kp at 10 min, 62.5 nM ([1]; thalamus, with 100 µM unlabelled L-arginine, Difference (ADMA minus Sucrose), thalamus, + 100uM Arg, mean) was 0.0566, the Kp at 10 min, 62.5 nM ([1]; thalamus, with 100 µM unlabelled L-arginine, [3H] ADMA + [14C] Sucrose + 100uM Arg, mean, read-out: uptake into thalamus) was 0.0793 and the “uptake into caudate nucleus” value [2] was 0.06709 and 0.08883 and 0.04583 and 0.07378. The uptake into cerebellum [2] was 0.04812 and 0.06526 and 0.1041 and 0.02606 and 0.09306, the “uptake into choroid plexus” value [2] was 0.5896 and 0.666 and 0.4457 and 0.7681 and the “uptake into frontal cortex” value [2] was 0.07007 and 0.07553 and 0.1227 and 0.05236 and 0.1082. For the same molecule, the uptake into hippocampus [2] was 0.04437 and 0.05436 and 0.09956 and 0.03726 and 0.0687, the uptake into hypothalamus [2] was 0.1376 and 0.1261 and 0.09757 and 0.08557 and the “uptake into occipital cortex” value [2] was 0.04352 and 0.05773 and 0.1002 and 0.05331 and 0.07955. For the same molecule, the “uptake into pituitary gland” value [2] was 0.3174 and 0.8724 and 1.123 and 0.09502 and 0.5936, the uptake into pons [2] was 0.0747 and 0.145 and 0.1344 and 0.05028 and 0.06842 and the uptake into thalamus [2] was 0.04368 and 0.06682 and 0.145 and 0.05879 and 0.08201. The “Difference (ADMA minus Sucrose), choroid plexus” value ([3]; 2.5 mins, individual mouse) was 0.4619 (2×) and 1.038 and 0.6787 and 0.7164, the “Difference (ADMA minus Sucrose), pineal gland” value ([3]; 2.5 mins, individual mouse) was 0.0119 (2×) and 0.6055 and 0.1704 and 0.3775 and the “[3H] ADMA and [14C] Sucrose uptake, choroid plexus” value ([3]; 2.5 mins, individual mouse) was 1.245 and 0.8202 and 0.645 and 0.9198. For the same molecule, the “[3H] ADMA and [14C] Sucrose uptake, frontal cortex” value ([3]; 2.5 mins, individual mouse, in mL/100 g) was 0.1518 and 0.0919, the “Difference (ADMA minus Sucrose), caudate nucleus” value ([3]; 30 mins, individual mice) was 0.07868 and 0.2155 and 0.07884 and 0.04051 and 0.09553 and the “Difference (ADMA minus Sucrose), choroid plexus” value ([3]; 30 mins, individual mice) was 0.4322 and 0.7701 and 0.2962 and 0.1895 and 0.3495. For the same molecule, the “Difference (ADMA minus Sucrose), frontal cortex” value ([3]; 30 mins, individual mice) was 0.08507 and 0.2094 and 0.08399 and 0.04504 and 0.09711, the “Difference (ADMA minus Sucrose), occipital cortex” value ([3]; 30 mins, individual mice) was 0.09101 and 0.202 and 0.09058 and 0.04293 and 0.1128 and the “Difference (ADMA minus Sucrose), pineal gland” value ([3]; 30 mins, individual mice) was 0.4361 and 1.061 and 0.1804 and 0.1286 and 0.2721. For the same molecule, the “Difference (ADMA minus Sucrose), caudate nucleus” value ([3]; 30 mins, mean) was 0.1018, the “Difference (ADMA minus Sucrose), choroid plexus” value ([3]; 30 mins, mean) was 0.4075 and the “Difference (ADMA minus Sucrose), frontal cortex” value ([3]; 30 mins, mean) was 0.1041. The “Difference (ADMA minus Sucrose), caudate nucleus” value ([3]; CONTROL, 10 mins, mean) was 0.2407, the “Difference (ADMA minus Sucrose), cerebellum” value ([3]; CONTROL, 10 mins, mean) was 0.1615 and the “Difference (ADMA minus Sucrose), choroid plexus” value ([3]; CONTROL, 10 mins, mean) was 2.6086. For the same molecule, the “Difference (ADMA minus Sucrose), frontal cortex” value ([3]; CONTROL, 10 mins, mean) was 0.2494, the “Difference (ADMA minus Sucrose), hippocampus” value ([3]; CONTROL, 10 mins, mean) was 0.2174 and the “Difference (ADMA minus Sucrose), hypothalamus” value ([3]; CONTROL, 10 mins, mean) was 0.3042. The “Difference (ADMA minus Sucrose), occipital cortex” value ([3]; CONTROL, 10 mins, mean) was 0.2252, the “Difference (ADMA minus Sucrose), pituitary gland” value ([3]; CONTROL, 10 mins, mean) was 1.829 and the “Difference (ADMA minus Sucrose), pons” value ([3]; CONTROL, 10 mins, mean) was 0.2464.
